Experimental data as given in PubChem BioAssay (NCI).
“And” between values parts separate entries of the source, which are not always exact repeats. Equal entries are not always repeated.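 Protocol summary: plate cells (96-well), add compound at 5 concentrations, incubate 48 h, interpolate endpoints linearly. GI50 = concentration required for 50% inhibition of growth. TGI denotes the concentration required for complete inhibition of growth.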

Legend:
Assay in all cases: growth of human tumour cells (NCI), 48 h
[1] = tested on: T-47D breast
[2] = tested on: SK-MEL-28 melanoma
[3] = tested on: M14 melanoma
[4] = tested on: U251 CNS
[5] = tested on: BT-549 breast
[6] = tested on: SK-OV-3 ovarian
[7] = tested on: HCT-15 colon
[8] = tested on: RPMI-8226 leukemia
[9] = tested on: PC-3 prostate
[10] = tested on: MOLT-4 leukemia

Row | SMILES | GI50 [1] | TGI [1] | GI50 [2] | TGI [2] | GI50 [3] | TGI [3] | GI50 [4] | TGI [4] | GI50 [5] | TGI [5] | GI50 [6] | TGI [6] | GI50 [7] | TGI [7] | GI50 [8] | TGI [8] | GI50 [9] | TGI [9] | GI50 [10] | TGI [10]
1 | Cc1cc2c(cc1Cl)S/C(=C/C(=O)O)C(Nc1ccc3ncsc3c1)=NS2(=O)=O | 22.1 µM | > 54.8 µM | 32.4 µM | > 60.6 µM | 12.7 µM | > 38.1 µM | 28.6 µM | > 63.9 µM | 7.12 µM | 29 µM | > 33.4 µM | > 52 µM | 27.4 µM | > 65.5 µM | 1.68 µM | 19.3 µM | 14.2 µM | > 49.4 µM | 5.5 µM | > 26.8 µM
2 | CC(C)(C)C1CCC2c3c([nH]c4ccccc34)C3C(=O)N(c4ccc(Cl)cc4)C(=O)C3C2C1 (stereo unspecified) | 60.9 µM and > 10 µM | > 100 µM | > 100 µM | > 100 µM | 54.3 µM and > 10 µM | > 100 µM | 56.5 µM and > 10 µM | > 100 µM |  | > 100 µM | > 100 µM | > 100 µM | 52.3 µM and > 10 µM | > 100 µM | 27.2 µM and > 10 µM | 77 µM and > 10 µM | 37.4 µM and > 10 µM | > 100 µM | 23.6 µM and > 10 µM | 50.6 µM and > 10 µM
3 | CCOCCCn1c2c(c3c(O)cccc31)C(=O)c1ccccc1-2 | 13.9 µM | 46.5 µM | 22.5 µM | 46.3 µM | 16.2 µM | 31.5 µM | 23.7 µM | 62.5 µM | 29 µM | 87.8 µM | 24.8 µM | 72.4 µM | 26.8 µM | 65.6 µM | 16.4 µM | 43.9 µM | 14.7 µM | 36.7 µM | 13.7 µM | 32.7 µM
4 | CNC(=O)c1c(NC(=O)c2ccc(C(C)(C)C)cc2)sc2c1CCC(=O)C2 | 0.184 µM | 1.53 µM | 0.506 µM | 1.87 µM | 0.346 µM | 1.79 µM | 0.143 µM | 1.45 µM | 0.352 µM | 1.68 µM | 1.4 µM | 6.17 µM | 0.12 µM | 1.27 µM | 0.0553 µM | 0.511 µM | 0.0797 µM | 1.35 µM | 0.314 µM | 2.05 µM
5 | CNC(=O)c1cc(Oc2ccc(NC(=O)Nc3ccc(Cl)c(C(F)(F)F)c3)c(F)c2)ccn1 | 2.08 µM and 1.53 µM | 9.1 µM and 7.49 µM | 1.57 µM and 1.3 µM | 6.28 µM and 8.13 µM | 1.38 µM and 1.28 µM | 6.75 µM and 8.81 µM | 2.79 µM and 2.46 µM | 11.3 µM and > 10 µM | 2.56 µM and 2.67 µM | 8.64 µM and 9.09 µM | 3.2 µM and 2.43 µM | 12.3 µM and 8.49 µM | 3 µM and 2.35 µM | > 32.9 µM and 9.96 µM | 1.71 µM and 1.83 µM | 4.96 µM and 7.32 µM | 2.82 µM and 2.7 µM | > 64.6 µM | 2.21 µM and 1.91 µM | 5.75 µM and 6.59 µM
6 | COCc1c(-c2cc3cc(C)cc(OC)c3s2)c2c(N)ncnn2c1CN1CCNC(=O)C1 | 4.84 µM | 47.4 µM | 9.38 µM | 70.3 µM | 4.12 µM | 35.4 µM | 3.86 µM | 79.7 µM | 1.03 µM | 17.1 µM | 2.62 µM | 7.72 µM | 3.63 µM | 83.7 µM | 1.58 µM | 6.83 µM | 8.54 µM | > 100 µM | 3.22 µM | 48.5 µM
7 | COc1ccc2c(c1)nc(C(=O)c1ccco1)c(C(F)(F)F)[n+]2[O-] | 77.4 µM | > 100 µM | > 100 µM | > 100 µM | > 100 µM | > 100 µM | > 100 µM | > 100 µM | > 100 µM | > 100 µM | > 100 µM | > 100 µM | > 100 µM | > 100 µM | > 100 µM | > 100 µM | 77.4 µM | > 100 µM | > 100 µM | > 100 µM
8 | CCN(Cc1ccccc1)C1CCN(Cc2cc(Br)ccc2O)CC1 | 24 µM | > 100 µM | 22 µM | 59.4 µM | 20.7 µM | 54.5 µM | 32.5 µM | > 100 µM | 44.4 µM | > 100 µM | 77.4 µM | > 100 µM | 20.1 µM | > 100 µM | 25.5 µM | > 100 µM | 38.9 µM | > 100 µM | 32.6 µM | > 100 µM
9 | COc1ccc2c(c1)[nH]c(=O)c1c3cccc(F)c3cn21 | 42.1 µM | > 100 µM | 0.351 µM | > 69.8 µM | 0.0463 µM | > 100 µM | 0.0472 µM | 14.8 µM | 21.2 µM | > 100 µM | 0.0848 µM | > 83.5 µM | 0.0458 µM | > 100 µM | 0.0295 µM | 0.27 µM | 0.0345 µM | > 31.9 µM | 0.0425 µM | 14.6 µM
10 | CCOC(=O)Oc1cc2c(c(OC)c1OC)-c1ccc(OC)c(=O)cc1C(NC(C)=O)CC2 (stereo unspecified) |  | > 100 µM |  | > 100 µM |  | > 70.6 µM |  | 8.56 µM |  | > 100 µM |  | 98.1 µM |  | > 100 µM |  | 70.6 µM |  | > 100 µM |  | 22.9 µM
11 | Nc1ccc(C(=O)N/C(=C\c2cccc([N+](=O)[O-])c2)c2nc3[nH]c(=S)[nH]c(=O)c3[nH]2)cc1 |  | > 89.5 µM |  | > 100 µM |  | > 100 µM |  | > 85.6 µM |  | > 100 µM |  | 56.2 µM |  | > 100 µM |  | > 100 µM |  | > 100 µM |  | > 56.2 µM
12 | COc1ccc(/C(COc2ccc3oc(-c4ccccc4)cc(=O)c3c2)=N\O)cc1 | 2.41 µM | > 50 µM | 0.65 µM | 5.13 µM | 0.321 µM | > 50 µM | 0.13 µM | 12.2 µM | 0.836 µM | 5.5 µM | 0.747 µM | > 33.5 µM | 0.0264 µM |  | 0.196 µM | 20 µM | 0.202 µM | > 19.2 µM | 0.678 µM | > 50 µM
13 | CC1CC[P+](c2ccccc2)(c2ccccc2)c2c1ccc1ccccc21 (stereo unspecified) |  | > 71.6 µM | 13 µM | > 73.4 µM |  | 41.9 µM | 2.85 µM | > 100 µM |  | 6.68 µM | 2.73 µM | 16.4 µM |  | > 100 µM | 1.63 µM | 11.6 µM |  | 7.34 µM |  | 37.6 µM
14 | CCc1ccc(CCC(=O)Nc2ncc(Cc3ccc(Cl)cc3)s2)o1 | 1.48 µM | > 100 µM | 4.27 µM | > 100 µM | 0.271 µM |  | 0.371 µM | > 100 µM | 2.12 µM | > 100 µM | 0.449 µM | > 100 µM | 0.356 µM | > 100 µM | 0.372 µM | > 100 µM | 0.403 µM | > 100 µM | 0.53 µM | > 100 µM
15 | COc1ccc(Cc2coc3ccccc3c2=O)cc1OC |  | > 100 µM |  | > 100 µM |  | > 100 µM |  | > 100 µM |  | > 100 µM |  | > 100 µM |  | > 100 µM |  | > 100 µM |  | > 100 µM |  | > 100 µM
16 | CC1=C2[C@@H](CC1)[C@]1(C)O[C@@](C(C)C)(C[C@H]1OC(=O)CO)[C@H]2OC(=O)C1CC1c1ccccc1 (stereo partly specified) | 4.16 µM | 21.6 µM | 16.8 µM | 34.6 µM | 12.8 µM | 29.3 µM | 14.8 µM | 28.6 µM | 13.6 µM | 28.7 µM | 16.4 µM | 30.7 µM | 13 µM | 27.6 µM | 12.8 µM | 42.6 µM | 7.36 µM | 21.6 µM | 9.73 µM | 28.8 µM
17 | COc1cc(/C=N/Nc2ncnc3c2cnn3-c2ccccc2)ccc1O | 7.64 µM | > 25 µM | 18.5 µM | > 25 µM | > 21.4 µM | > 25 µM | 11.6 µM | > 25 µM | > 25 µM | > 25 µM | 9.88 µM | > 25 µM | 4.06 µM | > 25 µM | > 25 µM | > 25 µM | 5.24 µM | > 25 µM | > 25 µM | > 25 µM
18 | NCCCC[C@@H]1NC(=O)[C@H](CC(=O)O)NC(=O)CNC(=O)[C@H](CCCN=C(N)N)NC(=O)[C@@H](N)CSSC[C@@H](C(=O)O)NC(=O)[C@H](CC(=O)O)NC(=O)[C@@H]2CCCN2C(=O)CNC1=O | > 100 µM | > 100 µM | > 100 µM | > 100 µM | > 100 µM | > 100 µM | > 100 µM | > 100 µM | > 100 µM | > 100 µM | > 100 µM | > 100 µM | > 100 µM | > 100 µM | > 100 µM | > 100 µM | > 100 µM | > 100 µM | > 100 µM | > 100 µM
19 | COc1ccc(C/C(=C(\C)c2ccc(OCCN3CCCC3)cc2)c2ccc(OCCN3CCCC3)cc2)cc1 | 1.69 µM | 3.37 µM | 1.82 µM | 3.3 µM | 1.67 µM | 3.5 µM | 1.8 µM | 3.32 µM | 1.67 µM | 3.25 µM | 1.86 µM | 3.68 µM | 1.51 µM | 3.05 µM | 1.87 µM | 4.3 µM | 1.75 µM | 4.07 µM | 1.94 µM | 4.51 µM
20 | O=C(CCCN1CCC(O)(c2ccc(Cl)cc2)CC1)c1ccc(F)cc1 |  | > 100 µM |  | 36.9 µM |  | 34.6 µM |  | 41.1 µM |  | > 100 µM |  | > 100 µM |  | 37.5 µM |  | > 100 µM |  | > 100 µM |  | > 100 µM
21 | COc1cccc(CC(C)=C(c2ccc(OCCN3CCCCC3)cc2)c2ccc(OCCN3CCCCC3)cc2)c1 | 1.58 µM | 4.06 µM | 2.12 µM | 4.11 µM | 1.67 µM | 3.76 µM | 1.81 µM | 3.7 µM | 1.93 µM | 3.82 µM | 2.2 µM | 4.23 µM | 0.992 µM | 2.99 µM | 1.62 µM | 4.41 µM | 1.83 µM | 3.75 µM | 1.5 µM | 4.01 µM
22 | O=S(=O)(NNc1ccccc1)c1ccccc1 |  | 51.5 µM |  | > 100 µM |  | 17.3 µM |  | 33.9 µM |  | 44.2 µM |  | > 100 µM |  | > 100 µM |  | 46.4 µM |  | 22.9 µM |  | 99 µM
23 | CC(C)(C)c1ccc(Oc2ccc(N)cn2)cc1 | 26.2 µM | > 100 µM | 75.9 µM | > 100 µM | 56.4 µM | > 100 µM | 49.2 µM | > 100 µM | 11.3 µM | 99.8 µM | > 100 µM | > 100 µM | 43.9 µM | > 100 µM | 1.99 µM | 41.2 µM | 8.02 µM | > 100 µM | 3.96 µM | > 100 µM
24 | CC1=C(SCCC(=O)OC(C[Se]C2=C(C)C(=O)c3ccccc3C2=O)C(=O)NCCCCCC(=O)OCc2ccccc2)C(=O)c2ccccc2C1=O (stereo unspecified) | 17.7 µM | 51.8 µM | 11.9 µM | 24.7 µM | 2.01 µM | 4.22 µM | 4.09 µM | 13.6 µM | 3.81 µM | 12.9 µM | 7.1 µM | 19.7 µM | 6.53 µM | 21.3 µM | 2.65 µM | 7.76 µM | 2.55 µM | 9.13 µM | 4.08 µM | > 100 µM
